Reference: the supplement of paper PMC10307832

Experiments:
Assay in all cases: relative viability (nuclei count vs DMSO), 5 days (fraction); higher = more cells survive
NCI-H1944 = test system: NCI-H1944
Summary of the method: (§1)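 Each reported value is a median over duplicate plates. It expresses relative viability: treated-well nuclei count divided by vehicle-well nuclei count. Lung cancer cell lines in 1536-well plates were dosed by pin tool a day after seeding, alone with one drug or with a fixed anchor-drug dose plus five library-drug doses (not always all listed) in √10 steps, and nuclei were counted after 5 days.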

SK-LU-1 = test system: SK-LU-1
Summary of the method: as §1

NCI-H838 = test system: NCI-H838
Summary of the method: as §1

NCI-H1993 = test system: NCI-H1993
Summary of the method: as §1

HCC-366 = test system: HCC-366
Summary of the method: as §1

HCC-78 = test system: HCC-78
Summary of the method: as §1

NCI-H1793 = test system: NCI-H1793
Summary of the method: as §1

NCI-H2126 = test system: NCI-H2126
Summary of the method: as §1

ChaGo-K-1 = test system: ChaGo-K-1
Summary of the method: as §1

NCI-H2023 = test system: NCI-H2023
Summary of the method: as §1

NCI-H358 = test system: NCI-H358
Summary of the method: as §1

HARA = test system: HARA
Summary of the method: as §1

LC-2-ad = test system: LC-2-ad
Summary of the method: as §1

NCI-H23 = test system: NCI-H23
Summary of the method: as §1

HOP-62 = test system: HOP-62
Summary of the method: as §1

NCI-H1395 = test system: NCI-H1395
Summary of the method: as §1

COR-L23 = test system: COR-L23
Summary of the method: as §1

ABC-1 = test system: ABC-1
Summary of the method: as §1

NCI-H2405 = test system: NCI-H2405
Summary of the method: as §1

EMC-BAC-2 = test system: EMC-BAC-2
Summary of the method: as §1

HCC-15 = test system: HCC-15
Summary of the method: as §1

## COc1cc2nccc(Oc3ccc(NC(=O)Nc4cc(C)on4)c(Cl)c3)c2cc1OC [Tivozanib] + Nc1ncn([C@H]2C[C@H](O)[C@@H](CO)O2)c(=O)n1 [Decitabine] (partner 2 µM)
NCI-H1944; first compound 0.005 µM
  relative viability: 0.402
NCI-H1944; first compound 0.01581 µM
  relative viability: 0.473
NCI-H1944; first compound 0.05 µM
  relative viability: 0.447
NCI-H1944; first compound 0.1581 µM
  relative viability: 0.459
NCI-H1944; first compound 0.5 µM
  relative viability: 0.416
SK-LU-1; first compound 0.005 µM
  relative viability: 0.647
SK-LU-1; first compound 0.01581 µM
  relative viability: 0.643
SK-LU-1; first compound 0.05 µM
  relative viability: 0.644
SK-LU-1; first compound 0.1581 µM
  relative viability: 0.392
SK-LU-1; first compound 0.5 µM
  relative viability: 0.618
NCI-H838; first compound 0.005 µM
  relative viability: 0.431
NCI-H838; first compound 0.01581 µM
  relative viability: 0.499
NCI-H838; first compound 0.05 µM
  relative viability: 0.446
NCI-H838; first compound 0.1581 µM
  relative viability: 0.482
NCI-H838; first compound 0.5 µM
  relative viability: 0.428
NCI-H1993; first compound 0.005 µM
  relative viability: 0.658
NCI-H1993; first compound 0.01581 µM
  relative viability: 0.595
NCI-H1993; first compound 0.05 µM
  relative viability: 0.581
NCI-H1993; first compound 0.1581 µM
  relative viability: 0.469
NCI-H1993; first compound 0.5 µM
  relative viability: 0.592
HCC-366; first compound 0.005 µM
  relative viability: 0.334
HCC-366; first compound 0.01581 µM
  relative viability: 0.306
HCC-366; first compound 0.05 µM
  relative viability: 0.346
HCC-366; first compound 0.1581 µM
  relative viability: 0.349
HCC-366; first compound 0.5 µM
  relative viability: 0.378
HCC-78; first compound 0.005 µM
  relative viability: 0.685
HCC-78; first compound 0.01581 µM
  relative viability: 0.807
HCC-78; first compound 0.05 µM
  relative viability: 0.733
HCC-78; first compound 0.1581 µM
  relative viability: 0.651
HCC-78; first compound 0.5 µM
  relative viability: 0.667
NCI-H1793; first compound 0.005 µM
  relative viability: 0.474
NCI-H1793; first compound 0.01581 µM
  relative viability: 0.518
NCI-H1793; first compound 0.05 µM
  relative viability: 0.562
NCI-H1793; first compound 0.5 µM
  relative viability: 0.481
NCI-H2126; first compound 0.005 µM
  relative viability: 0.645
NCI-H2126; first compound 0.01581 µM
  relative viability: 0.584
NCI-H2126; first compound 0.05 µM
  relative viability: 0.612
NCI-H2126; first compound 0.1581 µM
  relative viability: 0.602
NCI-H2126; first compound 0.5 µM
  relative viability: 0.578
ChaGo-K-1; first compound 0.005 µM
  relative viability: 0.458
ChaGo-K-1; first compound 0.01581 µM
  relative viability: 0.498
ChaGo-K-1; first compound 0.05 µM
  relative viability: 0.515
ChaGo-K-1; first compound 0.1581 µM
  relative viability: 0.543
ChaGo-K-1; first compound 0.5 µM
  relative viability: 0.489
NCI-H2023; first compound 0.005 µM
  relative viability: 0.223
NCI-H2023; first compound 0.01581 µM
  relative viability: 0.219
NCI-H2023; first compound 0.05 µM
  relative viability: 0.24
NCI-H2023; first compound 0.1581 µM
  relative viability: 0.242
NCI-H2023; first compound 0.5 µM
  relative viability: 0.213
NCI-H358; first compound 0.005 µM
  relative viability: 0.187
NCI-H358; first compound 0.01581 µM
  relative viability: 0.217
NCI-H358; first compound 0.05 µM
  relative viability: 0.215
NCI-H358; first compound 0.1581 µM
  relative viability: 0.222
NCI-H358; first compound 0.5 µM
  relative viability: 0.206
HARA; first compound 0.005 µM
  relative viability: 0.469
HARA; first compound 0.01581 µM
  relative viability: 0.571
HARA; first compound 0.05 µM
  relative viability: 0.59
HARA; first compound 0.1581 µM
  relative viability: 0.652
HARA; first compound 0.5 µM
  relative viability: 0.793
LC-2-ad; first compound 0.005 µM
  relative viability: 0.835
LC-2-ad; first compound 0.01581 µM
  relative viability: 0.681
LC-2-ad; first compound 0.05 µM
  relative viability: 0.77
LC-2-ad; first compound 0.1581 µM
  relative viability: 0.58
LC-2-ad; first compound 0.5 µM
  relative viability: 0.57
NCI-H23; first compound 0.005 µM
  relative viability: 0.304
NCI-H23; first compound 0.01581 µM
  relative viability: 0.279
NCI-H23; first compound 0.05 µM
  relative viability: 0.3
NCI-H23; first compound 0.5 µM
  relative viability: 0.309
HOP-62; first compound 0.005 µM
  relative viability: 0.247
HOP-62; first compound 0.01581 µM
  relative viability: 0.187
HOP-62; first compound 0.05 µM
  relative viability: 0.2
HOP-62; first compound 0.1581 µM
  relative viability: 0.256
HOP-62; first compound 0.5 µM
  relative viability: 0.223
NCI-H1395; first compound 0.005 µM
  relative viability: 0.671
NCI-H1395; first compound 0.01581 µM
  relative viability: 0.672
NCI-H1395; first compound 0.05 µM
  relative viability: 0.732
NCI-H1395; first compound 0.1581 µM
  relative viability: 0.713
NCI-H1395; first compound 0.5 µM
  relative viability: 0.617
COR-L23; first compound 0.005 µM
  relative viability: 0.391
COR-L23; first compound 0.01581 µM
  relative viability: 0.398
COR-L23; first compound 0.05 µM
  relative viability: 0.403
COR-L23; first compound 0.1581 µM
  relative viability: 0.317
COR-L23; first compound 0.5 µM
  relative viability: 0.372
ABC-1; first compound 0.005 µM
  relative viability: 0.986
ABC-1; first compound 0.01581 µM
  relative viability: 1.01
ABC-1; first compound 0.05 µM
  relative viability: 1.15
ABC-1; first compound 0.1581 µM
  relative viability: 0.868
ABC-1; first compound 0.5 µM
  relative viability: 0.694
NCI-H2405; first compound 0.005 µM
  relative viability: 0.676
NCI-H2405; first compound 0.01581 µM
  relative viability: 0.771
NCI-H2405; first compound 0.05 µM
  relative viability: 0.756
NCI-H2405; first compound 0.1581 µM
  relative viability: 0.706
NCI-H2405; first compound 0.5 µM
  relative viability: 0.591
EMC-BAC-2; first compound 0.005 µM
  relative viability: 1.02
EMC-BAC-2; first compound 0.01581 µM
  relative viability: 0.977
EMC-BAC-2; first compound 0.05 µM
  relative viability: 0.952
EMC-BAC-2; first compound 0.1581 µM
  relative viability: 0.927
EMC-BAC-2; first compound 0.5 µM
  relative viability: 0.975
HCC-15; first compound 0.005 µM
  relative viability: 0.613
HCC-15; first compound 0.01581 µM
  relative viability: 0.612
HCC-15; first compound 0.05 µM
  relative viability: 0.641
HCC-15; first compound 0.1581 µM
  relative viability: 0.727
HCC-15; first compound 0.5 µM
  relative viability: 0.639
